According to PubChem BioAssay AID192 (DTP/NCI, 2004):
Values joined by “and” are separate entries in the source; they are usually repeats but may differ in a detail not shown here. Equal values may be shown once. Toxic doses and inconclusive results are not listed. The calls were made as follows: active = survival T/C of 150% or more; inactive = T/C below 125% in these data.

Test system: BDF1 mice, B16 melanoma ip, median survival T/C
Assay: NCI In Vivo Anticancer Drug Screen. Data for tumor model B16 Melanoma (intraperitoneal) in B6D2F1 (BDF1) mice
Conditions: endpoint: median survival time, higher = longer survival
Procedure, shortened: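 Antitumor activity is assessed in mice bearing a transplanted tumor, with survival or tumor size compared against vehicle-dosed controls and expressed as T/C.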

[1] = dose: 100.0 mg/kg/injection, schedule: Q04DX003 (ip), vehicle: Klucel (hydroxypropylcellulose) (HPC)
[2] = dose: 200.0 mg/kg/injection, schedule: Q04DX003 (ip), vehicle: Klucel (hydroxypropylcellulose) (HPC)
[3] = dose: 400.0 mg/kg/injection, schedule: Q04DX003 (ip), vehicle: Klucel (hydroxypropylcellulose) (HPC)
[4] = dose: 100.0 mg/kg/injection, schedule: Q04DX003 (ip), vehicle: saline with Tween-80
[5] = dose: 50.0 mg/kg/injection, schedule: Q01DX009 (ip), vehicle: Klucel (hydroxypropylcellulose) (HPC)
[6] = dose: 100.0 mg/kg/injection, schedule: Q01DX009 (ip), vehicle: Klucel (hydroxypropylcellulose) (HPC)
[7] = dose: 200.0 mg/kg/injection, schedule: Q01DX009 (ip), vehicle: Klucel (hydroxypropylcellulose) (HPC)
[8] = dose: 6.25 mg/kg/injection, schedule: Q01DX009 (ip), vehicle: saline
[9] = dose: 12.5 mg/kg/injection, schedule: Q01DX009 (ip), vehicle: saline
[10] = dose: 25.0 mg/kg/injection, schedule: Q01DX009 (ip), vehicle: saline

Measured: T/C

CC(CN1CC(=O)NC(=O)C1)N1CC(=O)NC(=O)C1 (stereo not drawn)
inactive: dose: 3.75 mg/kg/injection, schedule: Q01DX009 (ip), vehicle: alkali diluted with saline 99 % of control | dose: 3.75 mg/kg/injection, schedule: Q01DX009 (ip), vehicle: saline sonified 97 % of control | dose: 3.75 mg/kg/injection, schedule: Q01DX009 (ip), vehicle: saline 102 % of control | dose: 3.75 mg/kg/injection, schedule: Q04DX004 (ip), vehicle: saline 100 % of control | dose: 4.0 mg/kg/injection, schedule: Q01DX009 (ip), vehicle: saline with Tween-80 114 % of control | dose: 4.0 mg/kg/injection, schedule: Q01DX009 (ip), vehicle: saline 115 % of control | dose: 7.5 mg/kg/injection, schedule: Q01DX009 (ip), vehicle: alkali diluted with saline 105 % of control | dose: 7.5 mg/kg/injection, schedule: Q01DX009 (ip), vehicle: saline sonified 100 % of control | dose: 7.5 mg/kg/injection, schedule: Q01DX009 (ip), vehicle: saline 104 % of control | dose: 7.5 mg/kg/injection, schedule: Q04DX004 (ip), vehicle: saline 90 % of control | dose: 8.0 mg/kg/injection, schedule: Q01DX009 (ip), vehicle: saline with Tween-80 105 % of control and 112 % of control and 118 % of control | dose: 8.0 mg/kg/injection, schedule: Q01DX009 (ip), vehicle: saline 123 % of control | dose: 15.0 mg/kg/injection, schedule: Q01DX009 (ip), vehicle: alkali diluted with saline 110 % of control | dose: 15.0 mg/kg/injection, schedule: Q01DX009 (ip), vehicle: saline sonified 109 % of control | dose: 15.0 mg/kg/injection, schedule: Q01DX009 (ip), vehicle: saline with Tween-80 110 % of control | dose: 15.0 mg/kg/injection, schedule: Q01DX009 (ip), vehicle: saline 114 % of control | dose: 15.0 mg/kg/injection, schedule: Q04DX004 (ip), vehicle: saline 88 % of control | dose: 16.0 mg/kg/injection, schedule: Q01DX009 (ip), vehicle: saline with Tween-80 121 % of control and 123 % of control | dose: 25.0 mg/kg/injection, schedule: Q04DX003 (ip), vehicle: Klucel (hydroxypropylcellulose) (HPC) 94 % of control and 97 % of control | dose: 30.0 mg/kg/injection, schedule: Q01DX009 (ip), vehicle: alkali diluted with saline 119 % of control | dose: 30.0 mg/kg/injection, schedule: Q01DX009 (ip), vehicle: saline sonified 119 % of control | dose: 30.0 mg/kg/injection, schedule: Q01DX009 (ip), vehicle: saline with Tween-80 113 % of control | dose: 30.0 mg/kg/injection, schedule: Q01DX009 (ip), vehicle: saline 121 % of control | dose: 30.0 mg/kg/injection, schedule: Q01DX009 (oral), vehicle: saline 95 % of control | dose: 30.0 mg/kg/injection, schedule: Q04DX004 (ip), vehicle: saline 90 % of control | dose: 32.0 mg/kg/injection, schedule: Q01DX009 (ip), vehicle: Klucel (hydroxypropylcellulose) (HPC) 115 % of control | dose: 32.0 mg/kg/injection, schedule: Q01DX009 (ip), vehicle: saline with Tween-80 122 % of control | dose: 32.0 mg/kg/injection, schedule: Q04DX003 (ip), vehicle: saline with Tween-80 109 % of control and 110 % of control | dose: 50.0 mg/kg/injection, schedule: Q04DX003 (ip), vehicle: Klucel (hydroxypropylcellulose) (HPC) 108 % of control and 110 % of control | dose: 60.0 mg/kg/injection, schedule: Q01DX009 (ip), vehicle: saline with Tween-80 118 % of control | dose: 60.0 mg/kg/injection, schedule: Q04DX004 (ip), vehicle: saline 111 % of control | dose: 64.0 mg/kg/injection, schedule: Q01DX009 (ip), vehicle: Klucel (hydroxypropylcellulose) (HPC) 120 % of control | dose: 64.0 mg/kg/injection, schedule: Q04DX003 (ip), vehicle: saline with Tween-80 108 % of control and 115 % of control | dose: 64.0 mg/kg/injection, schedule: Q04DX003 (ip), vehicle: saline 115 % of control | [1] 108 % of control and 112 % of control | dose: 120.0 mg/kg/injection, schedule: Q01DX009 (ip), vehicle: saline with Tween-80 116 % of control | dose: 128.0 mg/kg/injection, schedule: Q01DX009 (ip), vehicle: Klucel (hydroxypropylcellulose) (HPC) 120 % of control | dose: 128.0 mg/kg/injection, schedule: Q04DX003 (ip), vehicle: saline with Tween-80 121 % of control | dose: 128.0 mg/kg/injection, schedule: Q04DX003 (ip), vehicle: saline 121 % of control | [2] 112 % of control | [3] 108 % of control | dose: 800.0 mg/kg/injection, schedule: Q04DX003 (ip), vehicle: Klucel (hydroxypropylcellulose) (HPC) 112 % of control

Cc1ccc(S(=O)(=O)N(C)C)cc1N
inactive: dose: 100.0 mg/kg/injection, schedule: Q01DX009 (ip), vehicle: saline with Tween-80 97 % of control | [4] 100 % of control | dose: 200.0 mg/kg/injection, schedule: Q01DX009 (ip), vehicle: saline with Tween-80 118 % of control | dose: 200.0 mg/kg/injection, schedule: Q04DX003 (ip), vehicle: saline with Tween-80 102 % of control | dose: 400.0 mg/kg/injection, schedule: Q01DX009 (ip), vehicle: saline with Tween-80 102 % of control | dose: 400.0 mg/kg/injection, schedule: Q04DX003 (ip), vehicle: saline with Tween-80 100 % of control

COc1ccc(C(C(N)=O)N2CCOCC2)cc1 (stereo not drawn)
inactive: dose: 25.0 mg/kg/injection, schedule: Q01DX009 (ip), vehicle: Klucel (hydroxypropylcellulose) (HPC) 92 % of control | [5] 89 % of control | [6] 87 % of control | [1] 92 % of control | [7] 86 % of control | [2] 95 % of control | [3] 95 % of control

COc1ccccc1CC(C)N (stereo not drawn)
inactive: dose: 20.0 mg/kg/injection, schedule: Q01DX009 (ip), vehicle: saline with Tween-80 97 % of control | dose: 40.0 mg/kg/injection, schedule: Q01DX009 (ip), vehicle: saline with Tween-80 95 % of control

CCCOP(OCCC)OCCC
inactive: [8] 109 % of control | [9] 118 % of control | [10] 100 % of control | dose: 50.0 mg/kg/injection, schedule: Q01DX009 (ip), vehicle: saline 92 % of control

Cn1c2c(sc1=O)CCC2
inactive: [5] 113 % of control | [6] 100 % of control | [7] 97 % of control

CC(C)(C)OC(=O)NC(CCCCNC(=O)C(F)(F)F)C(=O)ON1C(=O)CCC1=O (stereo not drawn)
inactive: dose: 25.0 mg/kg/injection, schedule: Q04DX003 (ip), vehicle: saline with Tween-80 114 % of control | dose: 50.0 mg/kg/injection, schedule: Q04DX003 (ip), vehicle: saline with Tween-80 115 % of control | [4] 90 % of control

COc1ccc2c(c1OC)C(=O)O[C@@H]2[C@H]1c2cc3c(cc2CCN1C)OCO3
inactive: dose: 10.0 mg/kg/injection, schedule: Q01DX009 (ip), vehicle: saline 112 % of control | dose: 20.0 mg/kg/injection, schedule: Q01DX009 (ip), vehicle: saline 108 % of control | dose: 40.0 mg/kg/injection, schedule: Q01DX009 (ip), vehicle: saline 98 % of control | dose: 80.0 mg/kg/injection, schedule: Q01DX009 (ip), vehicle: saline 109 % of control

c1ccc(CN2CCNCC2)cc1
inactive: [8] 108 % of control | [9] 108 % of control | [10] 106 % of control

Cc1ccc(C2NC(=O)c3ccccc3N2)s1 (stereo not drawn)
inactive: [5] 99 % of control | [6] 102 % of control | [7] 105 % of control | dose: 400.0 mg/kg/injection, schedule: Q01DX009 (ip), vehicle: Klucel (hydroxypropylcellulose) (HPC) 96 % of control
